Reference: BigSolDB 2.1

Nc1ncnc2nc[nH]c12
solubility (mole fraction)
Details | 278.15 K | 283.15 K | 288.15 K | 293.15 K | 298.15 K | 303.15 K | 308.15 K | 313.15 K | 318.15 K
in DMF | 0.00192 | 0.00205 | 0.00217 | 0.00232 | 0.00246 | 0.00262 | 0.00278 | 0.00295 | 0.00312
in DMSO | – | – | – | 0.0111 | 0.0117 | 0.0124 | 0.0131 | 0.0137 | 0.0144
in NMP | 0.0095 | 0.00971 | 0.0099 | 0.0101 | 0.0103 | 0.0105 | 0.0107 | 0.0109 | 0.0112
in propylene glycol | 0.0106 | 0.0108 | 0.0109 | 0.0111 | 0.0112 | 0.0114 | 0.0115 | 0.0117 | 0.0118
in water | 5.43e-05 | 6.88e-05 | 8.54e-05 | 0.000108 | 0.000134 | 0.000171 | 0.000216 | 0.000264 | 0.000321
